According to PMC7880690, “Chemical genetics and proteome-wide site mapping reveal cysteine MARylation by PARP-7 on immune-relevant protein targets” (eLife, 2021):

What was measured:
[1] = target: T1, IG-PARP-7 (I631G PARP-7) (Homo sapiens, UniProt Q7Z3E1, I631G); experiment: Labeling by orthogonal NAD+ analogs in HEK 293T lysates expressing GFP-IG-PARP-7 (click with biotin-azide, Streptavidin-HRP); type: biochemical; conditions: HEK 293 T cell lysates, 100 µM NAD+ analog
T1 construct: expressed in transfected cells; host or cells: HEK 293T (lysate)
Excerpt: Identifying the protein targets of PARP-7 is a critical first step toward unraveling its function in cells. In previous work we have developed an engineered enzyme—modified substrate strategy for identifying relevant targets of individual PARP family members ([Carter-O'Connell et al., 2014]; [Carter-O'Connell et al., 2016]; [Carter-O'Connell and Cohen, 2015]; [Carter-O'Connell et al., 2018]). This chemical genetic (CG) method uses engineered PARPs and an orthogonal NAD^+ analogue that contains a clickable handle (e.g. an alkyne) that is located at the N-6 position of the adenine ring (5-Bn-6-a-NAD^+). […] Importantly, 5-Bn-6-a-NAD^+ is not used by wild-type (WT) PARPs and in this way is orthogonal to native NAD^+. […] We therefore sought a new orthogonal NAD^+ analogue that would serve as an efficient substrate for floor position engineered PARP-7, I631G PARP-7 (IG-PARP-7) (Figure 1a).
Figure 1. A chemical genetic strategy for identifying the direct MARylation targets of PARP-7. (a) Schematic of chemical genetic approach for identifying direct targets of PARP-7. (b) Crystal structure of human PARP1 bound to the non-hydrolyzable NAD^+ analog benzamide adenine dinucleotide (BAD). PDB: 6bhv. […] Following copper-catalyzed click chemistry with biotin-azide, proteins were resolved by SDS-PAGE and biotinylated proteins were detected by Western blot detection using Streptavidin-HRP. […]

[2] = target: T2, PARP-7 (Homo sapiens, UniProt Q7Z3E1); conditions: time course in HEK 293 T cells
T2 sequence (Q7Z3E1 1-657): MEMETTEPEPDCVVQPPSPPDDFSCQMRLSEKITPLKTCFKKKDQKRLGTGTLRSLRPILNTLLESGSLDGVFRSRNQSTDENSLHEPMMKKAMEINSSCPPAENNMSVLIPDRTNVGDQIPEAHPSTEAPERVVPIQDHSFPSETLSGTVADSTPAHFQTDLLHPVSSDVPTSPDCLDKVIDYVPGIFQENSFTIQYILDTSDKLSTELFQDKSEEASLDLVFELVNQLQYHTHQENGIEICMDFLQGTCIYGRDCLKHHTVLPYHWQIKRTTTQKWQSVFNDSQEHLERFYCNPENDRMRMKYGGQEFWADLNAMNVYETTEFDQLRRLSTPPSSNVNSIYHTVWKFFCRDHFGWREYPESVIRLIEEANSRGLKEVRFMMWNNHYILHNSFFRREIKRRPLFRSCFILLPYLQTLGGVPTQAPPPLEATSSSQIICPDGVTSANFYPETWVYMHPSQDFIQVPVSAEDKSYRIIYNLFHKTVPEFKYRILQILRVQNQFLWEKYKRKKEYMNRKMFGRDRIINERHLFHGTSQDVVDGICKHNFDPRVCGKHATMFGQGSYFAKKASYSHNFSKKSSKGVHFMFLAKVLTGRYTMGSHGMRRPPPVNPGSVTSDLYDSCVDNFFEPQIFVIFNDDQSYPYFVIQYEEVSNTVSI

T1 sequence (Q7Z3E1 whole entry I631G): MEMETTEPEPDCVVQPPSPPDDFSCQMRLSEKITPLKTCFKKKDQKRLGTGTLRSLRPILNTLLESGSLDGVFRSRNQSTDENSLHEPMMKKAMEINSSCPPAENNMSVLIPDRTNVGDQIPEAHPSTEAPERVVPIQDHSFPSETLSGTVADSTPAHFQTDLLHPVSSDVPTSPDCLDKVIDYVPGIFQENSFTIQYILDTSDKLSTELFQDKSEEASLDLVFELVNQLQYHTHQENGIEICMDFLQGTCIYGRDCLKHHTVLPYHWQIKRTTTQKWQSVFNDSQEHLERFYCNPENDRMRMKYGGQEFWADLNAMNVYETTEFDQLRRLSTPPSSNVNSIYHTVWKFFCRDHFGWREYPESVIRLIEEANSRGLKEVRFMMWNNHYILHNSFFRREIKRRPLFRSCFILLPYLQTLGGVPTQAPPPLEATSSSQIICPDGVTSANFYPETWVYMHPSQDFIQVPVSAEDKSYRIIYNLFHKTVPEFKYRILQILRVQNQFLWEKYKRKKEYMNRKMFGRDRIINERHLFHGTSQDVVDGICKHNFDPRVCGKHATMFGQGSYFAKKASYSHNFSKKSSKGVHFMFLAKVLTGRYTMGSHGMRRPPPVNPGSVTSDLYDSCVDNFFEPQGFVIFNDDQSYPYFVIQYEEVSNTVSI

Compound: C#CCNc1ncnc2c1ncn2C1OC(COP(=O)(O)OP(=O)([O-])OCC2OC([n+]3cc(Cc4ccccc4)cc(C(N)=O)c3)C(O)C2O)C(O)C1O (centres unmarked) [5-Bn-6-a-NAD^+, reference compound]
- substrate for floor position engineered PARP-7 (IG-PARP-7) [1]: poor substrate

Compound: C[C@]1(c2nc3c(C(N)=O)cccc3[nH]2)CCCN1 [veliparib]
- decay of PARP-7-mediated MARylation of PARP-13.2 [2]: does not lead to the decay
